Test results: patent US7763596B2, “Selective glucocorticoid receptor agonists” (The University of Manchester, priority 2000, dated 2010)

Columns and labels:
[1] = system: tyrosine amino transferase (TAT); assay: Quantitation of tyrosine amino transferase (TAT) in the livers of air pouch mice; type: in vivo; details: 3 μg i.p., FIG. 22
Procedure: (§1) At time 0, mice received either 0.5 ml of zymosan (1 mg) (group A, B, C) injected locally into the air-pouch. Group D and E were left untreated at this time-point. At 4 h post-zymosan the animals were placed in CO2. Air-pouches were then washed with 2 ml of PBS containing 3 mM EDTA, and livers were recovered and snap frozen for later analysis.
Quantitation of Tyrosine Amino Transferase (TAT) Protein in the Livers: In this method a colourimetric approach is used to quantitate TAT activity. The TAT enzyme catalyses the following reaction: L-tyrosine+2-oxoglutarate⇄4-hydroxyphenylpyruvate (pHPP)+L-glutamate
This reaction also requires pyridoxal phosphate (PLP) as a co-factor. Strong alkali conditions can then be used to convert pHPP to p-hydroxybenzaldehyde (pHBA) and oxalate. The amount of pHBA can then be assessed by measuring its absorbance at 331 nm (extinction coefficient 19,900 M^−1cm^−1) this figure is then assumed to be directly proportional to TAT activity. Livers were homogenized and the cells were stored on ice. […]
For each reaction a control reaction was set up without the ketoglutarate. […] The samples were incubated at room temperature for a further 30 mins and then the absorbance of each sample was assessed at 331 nm on a spectrophotometer (Ultrospec III, Pharmacia).

[2] = system: zymosan induced neutrophil migration; assay: Air pouch model of inflammation, zymosan induced neutrophil migration; type: in vivo, mice
Procedure: Male outbred Swiss albino mice (18-20 g body weight) were purchased from Bantin and Kingman (T.O. strain; Hull, Humberside) and maintained on a standard chow pellet diet with tap water ad libitum and a 12:00 h light/dark cycle. All animals were housed for 3 days prior to experimentation to allow body weight to reach 20-22 g. On the day of experiment mice ranged from 24-26 g.
Air-pouches were formed on the back of mice by air injection (2.5 ml s.c.) on day 0 and day 3 (Perretti and Flower, 1993).
Zymosan A was allowed to defrost at room temperature for 30 min prior to being added to sterile PBS at a concentration of 2 mg/ml forming a homogenous suspension.
as §1
The number of migrated leukocytes (≧90% polymorphonuclear leukocytes, PMN) was determined in the lavage fluid from each air-pouch, by taking an aliquot (100 μl) of the lavage fluid and diluting 1:10 in Turk's solution (0.01% crystal violet in 3% acetic acid). The samples were then vortexed and 10 μl of the stained cell solution were placed in a Neubauer haematocymometer and neutrophils numbers counted using a light microscope (Olympus B061).
Neutrophil numbers were compared between groups using ANOVA plus the Bonferroni test. TAT levels were compared using a t-test.

endogenous GR = target: T1, endogenous GR (Homo sapiens, UniProt P04150); assay: Transrepression assay using endogenous GR in the A549 lung epithelial cell line (TNF, NRE luciferase); type: cell-based; details: compound G at 1, 10, 100 and 500 nM
T1 construct: This cell line contains functional endogenous GR; endogenous in cells; host or cells: A549
T1 sequence (P04150 1-777): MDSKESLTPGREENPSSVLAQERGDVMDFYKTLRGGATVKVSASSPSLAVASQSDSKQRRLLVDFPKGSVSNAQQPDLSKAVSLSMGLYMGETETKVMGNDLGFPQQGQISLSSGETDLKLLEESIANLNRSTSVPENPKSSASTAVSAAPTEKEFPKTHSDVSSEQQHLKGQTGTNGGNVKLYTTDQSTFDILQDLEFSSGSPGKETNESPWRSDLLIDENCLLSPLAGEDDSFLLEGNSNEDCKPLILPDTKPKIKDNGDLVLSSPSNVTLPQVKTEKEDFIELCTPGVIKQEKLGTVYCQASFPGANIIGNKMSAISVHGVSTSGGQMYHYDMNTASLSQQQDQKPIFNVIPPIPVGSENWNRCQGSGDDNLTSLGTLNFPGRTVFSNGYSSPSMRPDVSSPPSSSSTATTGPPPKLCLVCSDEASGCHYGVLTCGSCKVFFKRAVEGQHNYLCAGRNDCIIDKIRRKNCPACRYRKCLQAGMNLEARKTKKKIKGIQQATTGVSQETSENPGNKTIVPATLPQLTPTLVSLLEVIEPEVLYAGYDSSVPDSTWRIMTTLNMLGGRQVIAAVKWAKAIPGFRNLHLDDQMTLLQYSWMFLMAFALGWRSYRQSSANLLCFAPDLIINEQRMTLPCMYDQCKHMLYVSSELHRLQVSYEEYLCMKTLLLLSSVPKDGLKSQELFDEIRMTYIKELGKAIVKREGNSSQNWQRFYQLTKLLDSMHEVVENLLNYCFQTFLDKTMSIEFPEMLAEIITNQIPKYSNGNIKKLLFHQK
From the text: (§2) The A549 cell line (ECACC:86012804) is derived from the human lung epithelial cells from a carcinoma. This cell line contains functional endogenous GR and is stimulated by Tumour Necrosis Factor (TNF) to produce IL-8.
In this assay TNF was used to stimulate NFkB activity in a cell line that expressed endogenous GR. The ability of NFkB to activate an NRE “driving” a luciferase reporter gene could then be repressed by GR in a ligand dependent manner and, therefore, used to measure transrepression.
COS7 cells were transfected with 3 μg NRE-Luc per 10 cm tissue culture dish. The cells were plated out in to 24 well plates after transfection and left for 18 hours to recover before the steroids of FIGS. 1 and 2 were added. Next TNF was added to the samples after 3 hours incubation with the steroids and after another 15 hours the cells were lysed and a luciferase assay was performed.

glucocorticoid receptor = target: T2, glucocorticoid receptor (Homo sapiens, UniProt P04150); assay: Transrepression assay using artificially expressed glucocorticoid receptor and P65 in the COS 7 cell line (NRE luciferase); type: cell-based; parameters: expressed in transfected cells; host or cells: COS 7 (African green monkey kidney, deficient in endogenous GR); details: 1, 10 and 100 nM
T2 sequence (P04150 1-777): T1 sequence (P04150 1-777)
Procedure: All transfections were performed using lipofectamine plus (Gibco BRL), according to the manufacturers' instructions, as previously described^1. Briefly, all cells were seeded at 5×10^5 per 10 cm tissue culture plate 18 hours before transfection, the next day the relevant plasmids were mixed with serum free medium and “Plus” reagent (Gibco BRL) and incubated for 15 mins, lipofectamine reagent was added and the mix was incubated for a further 15 mins, this mix was added to the cells on serum free medium in the 10 cm tissue culture plates and left for 3 hours, the cells were then trypsinised and divided into 24 well plates, the cells were left to recover overnight and were treated with steroid for 16 hours before harvest. All experiments were performed from one transfection in triplicate and on separate occasions with similar results.
The firefly luciferase gene catalyses the production of light from the substrate luciferin. When plasmid constructs containing this gene are transfected into cell lines the activity of the gene can be assessed by the intensity of the luminesence. The luciferase assay yields luminescence through an ATP-dependent oxidation of luciferin the amount of light produced can be measured by a luminometer and is a measure of gene activity (Davis, 1996). Light intensity was measured in a Luminometer (LB 9501, Berthold). The light intensity should be proportional to luciferase concentration in the range of 10^−16M (10 μg/L) to 10^−8M (1 mg/L). To measure the luminescence of the treated cells 150 μl of 1× reporter lysis buffer (RLB: 25 mM Tris phosphate pH7.8, 10 mM MgCl2, 15% Glycerol, 1% Triton, 1 mM EDTA) was added to the 24 well plates to lyse the cells and incubated at room temperature for 30 mins whilst being shaken. Then 100 μl of the room temperature cell extract were mixed with 100 μl of room temperature Luciferase Assay Reagent (LAR: 1 mM ATP, 0.3 mM D-Luciferin, 66% RLB). This reaction was mixed in a luminometer (LB 9501, Berthold) and the light produced was measured for a period of 5 seconds.
To perform this assay the GR and p65 were artificially expressed in a cell line lacking GR and deficient in endogenous P65. The ability of P65 to activate an NFkB response element (NRE) “driving” a luciferase reporter gene could then be repressed by GR in a ligand dependent manner and, therefore, used to measure transrepression.
COS7 cells were transfected with 1 μg pcDNA3-GR and 3 μg NRE-Luc and 200 ng p65 per 10 cm tissue culture dish. The cells were plated out in to 24 well plates after transfection and left for 18 hours to recover before the steroids of FIGS. 1 and 2A were added. After another 18 hour incubation the cells were lysed and a luciferase assay was performed.

IL-8 = assay: Repression of endogenous IL-8 in A549s; type: cell-based, human; details: A549 cells; compound G at 100 nM, p=0.0076
From the text: as §2
In this assay TNF was used to stimulate NFkB activity in a cell line that expressed endogenous GR. The ability of NFkB to induce IL-8 gene transcription could then be repressed by GR in a ligand dependent manner and, therefore, used to measure transrepression.
COS7 cells were transfected with 3 μg NRE-Luc per 10 cm tissue culture dish. The cells were plated out in to 24 well plates after transfection and left for 18 hours to recover before the steroids of FIGS. 1 and 2A were added. After incubation for 3 hours with the steroids, TNF was added to the samples and after another 15 hours an IL-8 assay (R&D systems) was performed on the cell supernatants according to the manufacturers instructions. Briefly, triplicates of 100 μl of a 1:2 dilution of cell supernatant and 100 μl of a known dilution series of IL-8 were added to the wells of a microtitre plate coated with a monoclonal IL-8 antibody, the samples were incubated with a polyclonal biotinylated IL-8 antibody for 1 hour at room temperature and washed. Streptavidin horse radish peroxidase solution was then added to all wells and incubated for 30 mins before being washed. Tetramethyl benzidine (TMB; a chromagen) was added to all the wells and incubated in the dark for 10 mins, the reaction was stopped by the addition of H2SO4 and the absorbance of each well was read on a spectrophotometer using 450 nm as the primary wavelength. Regression analysis was performed on the standard data and the unknowns were expressed as pg/ml of IL-8 in comparison to the standards.

GFP tagged GR = target: T3, GFP tagged GR (Homo sapiens, UniProt P04150); assay: Nuclear translocation using GFP tagged GR and fluorescent microscopy; type: cell-based; details: COS 7 cells, 100 nM, 3 hours
T3 construct: expressed in transfected cells; host or cells: COS 7
T3 sequence (P04150 1-777): T1 sequence (P04150 1-777)
From the text: The un-liganded GR is present in the cytoplasm of cells in association with heat shock proteins (HSPs). The binding of an agonist ligand to the GR causes dissociation from the HSPs and translocation to the nucleus. A type I antagonist ligand can bind to the GR but cannot translocate to the nucleus. A type II antagonist ligand can bind to the GR, translocate to the nucleus and bind to DNA but cannot activate gene transcription. Therefore, the ability of a putative ligand to translocate the GR helps to determine its status as an agonist or antagonist. COS 7 cells were transfected with 5 μg of a green fluorescent protein (GFP) tagged GR expression vector. After transfection, these cells were split into 6 well plates with sterile microscope cover slips placed at the bottom of each well. The cells were allowed to recover for 18 hours and then the medium was removed, the cells were washed three times with sterile phosphate buffered saline (PBS) and new medium was added containing charcoal stripped FCS in place of normal FCS. The cells were incubated for 18 hours and then the steroids of FIGS. 1 and 2A were added to make a final concentration of 100 nM. The cells were incubated for a further 3 hours and then the medium was aspirated and the cells were fixed to the glass coverslips by adding ice cold methanol and incubating at −20° C. for 30 mins. The coverslips with the transfected cells fixed to them were mounted on slides and the cellular localisation of the GFP tagged GR was analysed by fluorescent microscopy using an Axioplan 2 microscope (Zeiss, Oberkochen, Germany) and KS300 v3.0 analysis software (Zeiss).

SMILES | liver TAT level compared with vehicle control groups [1] | Neutrophils (10^6 per mouse) ([2]; 3 μg i.p. at -1 h, Zymosan 1 mg into air-pouch, 4 h time-point, mean ± S.E. of 8 mice) | reduction of neutrophil accumulation ([2]; 3 μg i.p., zymosan air pouch, 4 h) [%] | repression of TNF activation of A549 cells (NRE reporter gene) (endogenous GR) | repression of P65 stimulation of an NFkB response element compared with dexamethasone (glucocorticoid receptor) | repression of IL-8 production after TNF activation (IL-8) | nuclear translocation of the GFP tagged glucocorticoid receptor (GFP tagged GR)
C[C@@H]1C[C@H]2[C@@H]3CCC4=CC(=O)C=C[C@]4(C)[C@@]3(F)[C@@H](O)C[C@]2(C)[C@@]1(O)C(=O)CO [Dexamethasone, reference compound] | further elevation of TAT | 6.23 ± 0.44 * 10^6 per mouse | ~30 |  |  |  | 
CCCNC(=O)OCC(=O)C1(O)C(C)CC2C3CCC4=CC(=O)C=CC4(C)C3(F)C(O)CC21C (stereo not shown) [Compound H] |  |  |  | exhibited transrepression | less potent than dexamethasone but produced the same maximal response at 100 nM | exhibited transrepression | caused nuclear localisation
